Legend:
[1] = system: Lucilia sericata, sleep blow fly; conditions: disclosed in WO 92/13451; cited from earlier work

melting point	Structure (SMILES)	activity against Lucilia sericata [1]
140 to 145 °C	CONC(=N)c1nn(-c2c(Cl)cc(C(F)(F)F)cc2Cl)c(N)c1[S+](C)[O-] (stereo not shown) [Compound 49, 5-Amino-1-[2,6-dichloro-4-(trifluoromethyl)phenyl]-N-methoxy-4-methylsulfinyl-1H-pyrazole-3-carboximidamide]	
128 to 130 °C	CC(C)ON=Cc1nn(-c2c(Cl)cc(C(F)(F)F)cc2Cl)c(N)c1[S+](C)[O-] (stereo not shown) [Compound 24, 5-Amino-1-[2,6-dichloro-4-(trifluoromethyl)phenyl]-4-methylsulfinyl-1H-pyrazole-3-carboxaldehyde O-(isopropyl)oxime]	
195.5 to 196.5 °C	C[S+]([O-])c1c(C=NO)nn(-c2ncc(C(F)(F)F)cc2Cl)c1N (stereo not shown) [Compound 32, 5-Amino-1-[3-chloro-5-(trifluoromethyl)-2-pyridinyl]-4-methylsulfinyl-1H-pyrazole-3-carboxaldehyde oxime]	
68 to 72 °C	N=C(NO)c1nn(-c2c(Cl)cc(C(F)(F)F)cc2Cl)c(C=NO)c1SC(F)(F)F [Compound 23, 1-[2,6-Dichloro-4-(trifluoromethyl)phenyl]-N-hydroxy-5-hydroxyiminomethyl-4-trifluoromethylthio-1H-pyrazole-3-carboximidamide]	
205.5 to 206.5 °C	CSc1c(C=NOC(C)=O)nn(-c2c(Cl)cc(C(F)(F)F)cc2Cl)c1N [Compound 14, 5-Amino-1-[2,6-dichloro-4-(trifluoromethyl)phenyl]-4-methylthio-1H-pyrazole-3-carboxaldehyde O-(acetyl)oxime]	
237 to 238 °C	C[S+]([O-])c1c(C(=N)NO)nn(-c2c(Cl)cc(C(F)(F)F)cc2Br)c1N (stereo not shown) [Compound 63, 5-Amino-1-[2-bromo-6-chloro-4-(trifluoromethyl)phenyl]-4-methylsulfinyl-N-hydroxy-1H-pyrazole-3-carboximidamide]	
162 °C	CNc1c([S+](C)[O-])c(C=NO)nn1-c1c(Cl)cc(C(F)(F)F)cc1Cl (stereo not shown) [Compound 3, 1-[2,6-Dichloro-4-(trifluoromethyl)phenyl]-5-methylamino-4-methylsulfinyl-1H-pyrazole-3-carboxaldehyde oxime]	
118 °C	CC(C)C(=O)NNC(=N)c1nn(-c2c(Cl)cc(C(F)(F)F)cc2Cl)c(N)c1[S+](C)[O-] (stereo not shown) [Compound 70, 5-Amino-1-[2,6-dichloro-4-(trifluoromethyl)phenyl]-4-methylsulfinyl-N-(isopropylcarbonyl)amino-1H-pyrazole-3-carboximidamide]	
136 to 146 °C	Nc1c(C(F)(F)F)c(C=NO)nn1-c1c(Cl)cc(C(F)(F)F)cc1Cl [Compound 38, 5-Amino-1-[2,6-dichloro-4-(trifluoromethyl)phenyl]-4-trifluoromethyl-1H-pyrazole-3-carboxaldehyde oxime]	
186 to 189 °C	CC[S+]([O-])c1c(C(=N)NO)nn(-c2c(Cl)cc(C(F)(F)F)cc2Cl)c1N (stereo not shown) [Compound 42, 5-Amino-1-[2,6-dichloro-4-(trifluoromethyl)phenyl]-N-hydroxy-4-ethylsulfinyl-1H-pyrazole-3-carboximidamide]	
144 to 146 °C	C[S+]([O-])c1c(C=NO)nn(-c2c(Cl)cc(OC(F)(F)F)cc2Cl)c1N (stereo not shown) [Compound 4, 5-Amino-1-[2,6-dichloro-4-(trifluoromethoxy)phenyl]-4-methylsulfinyl-1H-pyrazole-3-carboxaldehyde oxime]	
210 to 213 °C	CC[S+]([O-])c1c(C=NO)nn(-c2c(Cl)cc(C(F)(F)F)cc2Cl)c1C (stereo not shown) [Compound 34, 1-[2,6-Dichloro-4-(trifluoromethyl)phenyl]-4-ethylsulfinyl-5-methyl-1H-pyrazole-3-carboxaldehyde oxime]	
68 to 71 °C	CC(=NO)c1nn(-c2c(Cl)cc(C(F)(F)F)cc2Cl)c(N)c1[S+](C)[O-] (stereo not shown) [Compound 39, 3-Acetyl-5-amino-1-[2,6-dichloro-4-(trifluoromethyl)phenyl]-4-methylsulfinyl-1H-pyrazole oxime]	
194 to 196 °C	C#CCNc1c([S+](C)[O-])c(C(=N)NO)nn1-c1c(Cl)cc(C(F)(F)F)cc1Cl (stereo not shown) [Compound 67, 1-[2,6-Dichloro-4-(trifluoromethyl)phenyl]-4-methylsulfinyl-5-[(prop-2-ynyl)amino]-N-hydroxy-1H-pyrazole-3-carboximidamide]	
72 to 75 °C	N=C(NO)c1nn(-c2c(Cl)cc(C(F)(F)F)cc2Cl)c(C=O)c1SC(F)(F)F [Compound 22, 1-[2,6-Dichloro-4-(trifluoromethyl)phenyl]-5-formyl-N-hydroxy-4-trifluoromethylthio-1H-pyrazole-3-carboximidamide]	
109 to 111 °C	CCS(=O)(=O)c1c(C(=N)NO)nn(-c2c(Cl)cc(C(F)(F)F)cc2Cl)c1N [Compound 48, 5-Amino-1-[2,6-dichloro-4-(trifluoromethyl)phenyl]-N-hydroxy-4-ethylsulfonyl-1H-pyrazole-3-carboximidamide]	
213 to 214 °C	CCNC1(c2c(Cl)cc(C(F)(F)F)cc2Br)NNC(C(=N)NO)=C1[S+](C)[O-] (stereo not shown) [Compound 62, 5-[2-Bromo-6-chloro-4-(trifluoromethyl)phenyl]-5-ethylamino-4-methylsulfinyl-N-hydroxy-1H-pyrazole-3-carboximidamide]	
207 to 208 °C	CSc1c(C(=N)NO)nn(-c2c(Cl)cc(C(F)(F)F)cc2Cl)c1N [Compound 47, 5-Amino-1-[2,6-dichloro-4-(trifluoromethyl)phenyl]-N-hydroxy-4-methylthio-1H-pyrazole-3-carboximidamide]	
163 to 169 °C	Nc1c(SC(F)(F)F)c(C=NO)nn1-c1c(Cl)cc(C(F)(F)F)cc1Cl [Compound 6, 5-Amino-1-[2,6-dichloro-4-(trifluoromethyl)phenyl]-4-trifluoromethylthio-1H-pyrazole-3-carboxaldehyde oxime]	
173 to 175 °C	CC[S+]([O-])CCNc1c([S+]([O-])CC)c(C(=N)NO)nn1-c1c(Cl)cc(C(F)(F)F)cc1Cl (stereo not shown) [Compound 66, 1-[2,6-Dichloro-4-(trifluoromethyl)phenyl]-4-ethylsulfinyl-5-[2-(ethylsulfinyl)ethylamino]-N-hydroxy-1H-pyrazole-3-carboximidamide]	
234 to 235 °C	C[S+]([O-])c1c(C(=N)NO)nn(-c2ncc(C(F)(F)F)cc2Cl)c1N (stereo not shown) [Compound 54, 5-Amino-1-[3-chloro-5-(trifluoromethyl)-2-pyridinyl]-4-methylsulfinyl-N-hydroxy-1H-pyrazole-3-carboximidamide]	
146 to 152 °C	Nc1c(SC(F)F)c(C=NO)nn1-c1c(Cl)cc(C(F)(F)F)cc1Cl [Compound 7, 5-Amino-1-[2,6-dichloro-4-(trifluoromethyl)phenyl]-4-difluoromethylthio-1H-pyrazole-3-carboxaldehyde oxime]	
175 to 176 °C	C[S+]([O-])c1c(C(=N)NO)nn(-c2c(Cl)cc(C(F)(F)F)cc2Cl)c1NCCC#N (stereo not shown) [Compound 58, 5-[2-(Cyano)ethylamino]-1-[2,6-dichloro-4-(trifluoromethyl)phenyl]-N-hydroxy-4-methylsulfinyl-1H-pyrazole-3-carboximidamide]	
	N#Cc1nc(-c2c(C=NO)nn(-c3c(Cl)cc(C(F)(F)F)cc3Cl)c2Cl)[nH]c1C#N [5-chloro-1-[2,6-dichloro-4-(trifluoromethyl)phenyl]-4-(4,5-dicyano-1H-imadazol-2-yl)-3-hydroxyiminomethyl-1H-pyrazole]	activity against a single species
179 to 181 °C	CSc1c(C=NO)nn(-c2c(Cl)cc(C(F)(F)F)cc2Cl)c1N [Compound 8, 5-Amino-1-[2,6-dichloro-4-(trifluoromethyl)phenyl]-4-methylthio-1H-pyrazole-3-carboxaldehyde oxime]	

Source: US6638956B2, “Pesticidal 1-arylpyrazoles” (Rhone-Poulenc, Inc., priority 1996, dated 2003)
